Where a name gives a salt, the structure may show the parent alone. Each block holds one compound with its values, some of them ahead of it.
Key:
serum protein = test: Protein-binding ratio of UTs in rat serum; format: in vitro ADME, rats; settings: ultrafiltration at 37 °C
rOAT1/3 = test: rOAT1/3−/− rat experiment; format: in vivo, rats; settings: Fig. S7F
rMRP4 = format: in vivo, rats; settings: rat, in vivo
HSA = settings: 4% HSA, about 100 μM UT, 37 °C, 2 h; cited from earlier work
[1] = Correlation between biomarkers and cefmetazole pharmacokinetics in rats; format: in vivo; settings: PROB 60 and 120 mg/kg 7 days; cefmetazole 100 mg/kg i.v.
OAT1 = target: T1, OAT1 (Homo sapiens, UniProt Q4U2R8); test: Uptake of UTs in HEK293T-OAT1 cells; format: cell-based; settings: 100 μM, 30 min, 37 °C; for uptake of HSA-bound UT in OAT1-overexpressing cells vs control cells: with HSA; for uptake of free UT in OAT1-overexpressing cells vs control cells: without HSA
T1 sequence (Q4U2R8 1-563): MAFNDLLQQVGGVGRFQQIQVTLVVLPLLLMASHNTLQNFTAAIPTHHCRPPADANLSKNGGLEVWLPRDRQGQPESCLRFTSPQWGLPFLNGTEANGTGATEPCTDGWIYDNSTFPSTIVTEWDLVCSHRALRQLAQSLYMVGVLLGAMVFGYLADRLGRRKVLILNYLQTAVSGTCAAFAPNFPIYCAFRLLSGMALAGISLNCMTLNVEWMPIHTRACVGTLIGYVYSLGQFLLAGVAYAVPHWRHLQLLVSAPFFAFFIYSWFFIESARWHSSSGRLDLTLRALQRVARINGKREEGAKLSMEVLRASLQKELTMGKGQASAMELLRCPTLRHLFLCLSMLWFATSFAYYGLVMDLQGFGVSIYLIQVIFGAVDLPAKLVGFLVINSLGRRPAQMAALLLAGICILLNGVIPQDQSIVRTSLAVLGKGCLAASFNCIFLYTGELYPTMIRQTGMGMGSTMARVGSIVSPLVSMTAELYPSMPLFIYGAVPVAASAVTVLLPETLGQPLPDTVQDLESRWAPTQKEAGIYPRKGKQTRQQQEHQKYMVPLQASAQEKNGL

OAT3 = target: T2, OAT3 (Homo sapiens, UniProt Q8TCC7); test: Uptake of UTs in HEK293T-OAT3 cells; format: cell-based; settings: 100 μM, 30 min, 37 °C; for uptake of HSA-bound UT in OAT3-overexpressing cells vs control cells: with HSA; for uptake of free UT in OAT3-overexpressing cells vs control cells: without HSA
T2 sequence (Q8TCC7 1-542): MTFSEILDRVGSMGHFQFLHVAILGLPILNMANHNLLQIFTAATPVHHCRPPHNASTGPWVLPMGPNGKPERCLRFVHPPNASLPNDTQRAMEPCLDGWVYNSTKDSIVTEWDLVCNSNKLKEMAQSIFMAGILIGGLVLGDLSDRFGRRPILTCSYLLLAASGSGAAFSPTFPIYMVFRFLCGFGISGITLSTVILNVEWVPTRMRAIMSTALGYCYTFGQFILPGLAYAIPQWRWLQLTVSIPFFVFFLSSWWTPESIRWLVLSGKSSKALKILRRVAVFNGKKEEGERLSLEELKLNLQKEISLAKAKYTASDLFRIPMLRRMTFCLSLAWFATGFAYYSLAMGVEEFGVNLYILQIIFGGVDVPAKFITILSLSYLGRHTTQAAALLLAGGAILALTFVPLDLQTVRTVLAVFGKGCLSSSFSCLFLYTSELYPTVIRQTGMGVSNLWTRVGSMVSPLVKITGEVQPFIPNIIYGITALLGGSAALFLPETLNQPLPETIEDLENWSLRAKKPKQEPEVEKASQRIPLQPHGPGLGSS

MRP4 = test: Intracellular accumulation of UTs in MRP4-overexpressing cells; format: cell-based, human; settings: 100 μM, 30 min, 37 °C, 4 mM ATP
rOATs = rOATs inhibition experiment
[2] = format: in vivo, rats; settings: rats; for Renal clearance half-life (t1/2), Control: 2 mg/kg i.v., urine 0-12 h; for renal excretion with MK-571 vs control: MK-571 20 mg/kg; for renal excretion with PROB vs control: PROB 60 mg/kg

Compound: CN1CC(=O)NC1=N [Creatinine, creatinine]
Protein-binding ratio, Normal rats in vivo (%) (n = 6) (serum protein): less than 24%
renal elimination in rOAT1/3−/− rats (rOAT1/3): unaffected
renal clearance rate in rMRP4−/− rats vs WT (rMRP4): not significantly altered
renal uptake ratio in rMRP4−/− rats vs WT (rMRP4): not significantly altered
serum levels in rMRP4−/− rats vs WT (rMRP4): not significantly altered
Protein-binding ratio, HSA binding in vitro (%) (n = 3) (HSA): below 50%
plasma concentrations in rats treated with PROB [1]: did not change significantly

Compound: CCc1ccc(OS(=O)(=O)[O-])cc1.[K+] [4-ethylphenyl sulfate]
uptake of HSA-bound UT in OAT1-overexpressing cells vs control cells (OAT1): no significant change
uptake of free UT in OAT1-overexpressing cells vs control cells (OAT1): substantially elevated
Protein-binding ratio, Normal rats in vivo (%) (n = 6) (serum protein): > 90%
uptake of HSA-bound UT in OAT3-overexpressing cells vs control cells (OAT3): no significant change
uptake of free UT in OAT3-overexpressing cells vs control cells (OAT3): substantially elevated

Compound: Cc1ccc(OS(=O)(=O)O)cc1 [p-cresol sulfate]
uptake of HSA-bound UT in OAT1-overexpressing cells vs control cells (OAT1): significantly increased
uptake of free UT in OAT1-overexpressing cells vs control cells (OAT1): significantly increased
Protein-binding ratio, Normal rats in vivo (%) (n = 6) (serum protein): > 90%
uptake of free UT in OAT3-overexpressing cells vs control cells (OAT3): significantly increased

Compound: O=S(=O)(O)Oc1c[nH]c2ccccc12 [3-indoxyl sulfate]
uptake of HSA-bound UT in OAT3-overexpressing cells vs control cells (OAT3): no significant change
uptake of free UT in OAT3-overexpressing cells vs control cells (OAT3): substantially elevated

Compound: N[C@@H](Cc1ccc(O)c(O)c1)C(=O)O [3-(3,4-dihydroxyphenyl)-L-alanine]
Protein-binding ratio, Normal rats in vivo (%) (n = 6) (serum protein): < 70%

Compound: Nc1ccccc1C(=O)C[C@@H](N)C(=O)O [D-kynurenine]
uptake of HSA-bound UT in OAT1-overexpressing cells vs control cells (OAT1): markedly increased
uptake of free UT in OAT1-overexpressing cells vs control cells (OAT1): markedly increased
Protein-binding ratio, Normal rats in vivo (%) (n = 6) (serum protein): > 90%

Compound: Cn1cnc2c(ncn2[C@@H]2O[C@H](CO)[C@@H](O)[C@H]2O)c1=O [1-methyl-inosine]
uptake of free UT in OAT3-overexpressing cells vs control cells (OAT3): significantly higher

Compound: O=C(O)Cc1c[nH]c2ccccc12 [Indole-3-acetic acid, indole-3-acetic acid]
uptake of HSA-bound UT in OAT1-overexpressing cells vs control cells (OAT1): significantly increased
uptake of free UT in OAT1-overexpressing cells vs control cells (OAT1): significantly increased

Compound: O=C(O)CNC(=O)c1ccccc1 [Hippuric acid, hippuric acid]
intracellular accumulation in MRP4-overexpressing cells vs control cells (MRP4): slightly decreased
renal elimination in rOAT1/3−/− rats (rOAT1/3): substantially inhibited
uptake of HSA-bound UT in OAT3-overexpressing cells vs control cells (OAT3): dramatically increased
uptake of free UT in OAT3-overexpressing cells vs control cells (OAT3): dramatically increased
serum levels in rats treated with PROB vs control (rOATs; PROB 30, 60, 120 mg/kg oral, 7 days): no significant change

Compound: OC[C@H]1O[C@@H](Oc2c[nH]c3ccccc23)[C@H](O)[C@@H](O)[C@@H]1O [3-indoxyl-β-D-glucopyranoside]
Protein-binding ratio, Normal rats in vivo (%) (n = 6) (serum protein): > 90%
uptake of HSA-bound UT in OAT3-overexpressing cells vs control cells (OAT3): markedly increased
uptake of free UT in OAT3-overexpressing cells vs control cells (OAT3): markedly increased

The next lines start with results.

Protein-binding ratio, Normal rats in vivo (%) (n = 6) (serum protein): < 70%
uptake of HSA-bound UT in OAT3-overexpressing cells vs control cells (OAT3): markedly increased
uptake of free UT in OAT3-overexpressing cells vs control cells (OAT3): markedly increased
Compound: Cc1ccc(O[C@@H]2O[C@H](C(=O)O)[C@@H](O)[C@H](O)[C@H]2O)cc1 [p-cresol glucuronide]

intracellular accumulation in MRP4-overexpressing cells vs control cells (MRP4): efflux by MRP4
uptake of free UT in OAT1-overexpressing cells vs control cells (OAT1): mediated by OAT1 and OAT3
uptake of free UT in OAT3-overexpressing cells vs control cells (OAT3): mediated by OAT1 and OAT3
serum level in vivo (detectability by LC-MS/MS) (rOATs; rats / in vivo): below the lowest detection limit
Compound: O=C(O)c1cc(O)c2cccc(O)c2n1 [xanthurenic, xanthurenic acid]

histological structure of kidney (rOATs; rats, H&E staining): unchanged
Compound: CCCN(CCC)S(=O)(=O)c1ccc(C(=O)O)cc1 [PROB, probenecid, reference compound]

intracellular accumulation in MRP4-overexpressing cells vs control cells (MRP4): significantly decreased
Compound: CC(=O)N[C@@H](CCCN=C(N)N)C(=O)O [N-acetyl-L-arginine]

uptake of free UT in OAT1-overexpressing cells vs control cells (OAT1): significantly increased
uptake of free UT in OAT3-overexpressing cells vs control cells (OAT3): significantly increased
Compound: CC(=O)Nc1ccn([C@@H]2O[C@H](CO)[C@@H](O)[C@H]2O)c(=O)n1 [N-acetylcytidine]

Protein-binding ratio, Normal rats in vivo (%) (n = 6) (serum protein): less than 24%
Compound: O=c1[nH]cc([C@@H]2O[C@H](CO)[C@@H](O)[C@H]2O)c(=O)[nH]1 [Pseudouridine, pseudouridine]
Protein-binding ratio, HSA binding in vitro (%) (n = 3) (HSA): below 50%

Renal clearance half-life (t1/2), Control [2]: 3.7 ± 0.7 h
Compound: [2H]c1c([2H])c([2H])c2c(O)c([2H])c(C(=O)O)nc2c1[2H] [d5-kynurenic acid]

Protein-binding ratio, Normal rats in vivo (%) (n = 6) (serum protein): < 70%
Compound: NCCCC[C@H](NCC(=O)O)C(=O)O [N-(1-carboxymethyl)-L-lysine]

Protein-binding ratio, Normal rats in vivo (%) (n = 6) (serum protein): less than 24%
Compound: CN(C)c1nc2c(ncn2[C@@H]2O[C@H](CO)[C@@H](O)[C@H]2O)c(=O)[nH]1 [N, N-dimethylguanosine, N,N-dimethylguanosine]
Protein-binding ratio, HSA binding in vitro (%) (n = 3) (HSA): below 50%

Renal clearance half-life (t1/2), Control [2]: 1.9 ± 0.3 h
renal excretion with MK-571 vs control [2]: did not affect
renal excretion with PROB vs control [2]: did not affect
Compound: d3-CMPF

Protein-binding ratio, Normal rats in vivo (%) (n = 6) (serum protein): < 70%
uptake of HSA-bound UT in OAT3-overexpressing cells vs control cells (OAT3): significantly increased
uptake of free UT in OAT3-overexpressing cells vs control cells (OAT3): significantly increased
Compound: O=C(O)[C@H]1O[C@@H](Oc2ccccc2)[C@H](O)[C@@H](O)[C@@H]1O [Phenyl-β-D-glucuronide, phenyl-β-D-glucuronide]

Protein-binding ratio, Normal rats in vivo (%) (n = 6) (serum protein): less than 24%
Compound: O=C(O)c1cc(=O)[nH]c(=O)[nH]1 [Orotic acid, orotic acid]
Protein-binding ratio, HSA binding in vitro (%) (n = 3) (HSA): below 50%

renal excretion with MK-571 vs control [2]: reduce
renal excretion with PROB vs control [2]: reduce
Compound: [2H]c1c([2H])c([2H])c2c(O)c([2H])c(C(=O)O)nc2c1O [d4-xanthurenic acid]
